Assay results reported in patent publication US20250108038A1 (priority 2023, published 2025).
Several values for one entry are separate records, joined by “and”; a condition that tells them apart may be missing. Identical values can stand only once. Counter-ions that a name gives are not always drawn.

System: Long Evans rats
Test: Behavioral satiety sequence (BSS)
Format: in vivo, Long Evans rat
Text: The Behavioural Satiety Sequence (BSS) is a technique used to evaluate physiological satiety. It is based on the expression of a sequence of behaviors including eating, grooming, locomotor activity, followed by resting, which are typically observed in rodents post-ingestion (Halford et al, 1998, Pharmacology Biochemistry and Behaviour. 61(2): 159-168). The BSS is a widely used model for determining the effects of novel pharmaceuticals on food intake and measures of satiety in rodents (Oliveira et al, 2011, Revista de Nutrição. 24(4) 619-628), and to discriminate the cause of reduced food intake following pharmacological manipulation. For example, treatments that may reduce food intake by non-specific mechanisms, such as immobility, malaise, and taste adulteration, will disrupt this sequence (Halford et al, 1998, Pharmacology Biochemistry and Behaviour. 61(2): 159-168).
Specifically, 12 male Long-Evans rats were food-deprived for 22 h with a 2 h feeding period each day. Rats were trained to consume daily food during the 2 h period over 25 days. The testing phase was initiated once the rats consistently consumed 16-18 g of food per day with ≤10% variance in amount of feed consumed. Feeding took place in designated individual boxes in a quiet room separate from the housing room. Continuous remote monitoring via video camera during feeding was used to assess the BSS. Food consumption was measured by weighing the total available food before and after the 2 h feeding window, correcting for spillage. Lorcaserin (1 mg/kg) was included as a reference control (Higgins et al, 2011, Neuropsychopharmacology. 37(5): 1177-1191). Subjects were tested using a repeated-measures, Latin square design with 2-3 days wash-out between treatment cycles.
On scheduled test days, animals were monitored remotely via video camera during the feeding access period. The occurrence of four mutually exclusive behaviors (eating/drinking, grooming, active, rest) were individually scored. Over the 2 h feeding period, behaviors were assessed every 30 seconds. Scores were compiled into 23 5 min timebins (timebin 24 was removed due to early removal of animals) and the frequency of each behavior within each timebin was calculated to determine a temporal frequency of each measure (Rodgers et al, 2010, Pharmacology Biochemistry and Behaviour. 97: 3-14). Percentage time was plotted for each behavioral sequence in each timebin to compare between treatment groups (Higgins et al, 2011, Neuropsychopharmacology. 37(5): 1177-1191).

[1] = Lorcaserin 1 mg/kg, AVG of animals LT-1 to LT-12, 0-0.5 hours
[2] = Lorcaserin 1 mg/kg, raw data per animal LT-1 to LT-12, 0-0.5 hours, hydrochloride
[3] = lorcaserin 1 mg/kg, AVG of animals LT-1 to LT-12
[4] = lorcaserin 1 mg/kg, raw score per animal (LT-1 to LT-12), hydrochloride

## C[C@H]1CNCCc2ccc(Cl)cc21 [lorcaserin, Lorcaserin hydrochloride, reference compound]
Lorcaserin 1 mg/kg s.c., raw score per animal, hydrochloride
  BSS scoring R (resting), Time Bin 12 (55-60 TOTAL): 0 (10×) and 1 (2×)
[1]
  BSS scoring A (active), Time Bin 1 (0-5 TOTAL), AVG: 0.17
  BSS scoring A (active), Time Bin 2 (5-10 TOTAL), AVG: 0.08
  BSS scoring A (active), Time Bin 3 (10-15 TOTAL), AVG: 0.09
  BSS scoring A (active), Time Bin 4 (15-20 TOTAL), AVG: 0.10
  BSS scoring A (active), Time Bin 5 (20-25 TOTAL), AVG: 0.18
  BSS scoring A (active), Time Bin 6 (25-30 TOTAL), AVG: 0.15
  BSS scoring E (eating/drinking), Time Bin 1 (0-5 TOTAL), AVG: 0.75
  BSS scoring E (eating/drinking), Time Bin 2 (5-10 TOTAL), AVG: 0.83
  BSS scoring E (eating/drinking), Time Bin 3 (10-15 TOTAL), AVG: 0.78
  BSS scoring E (eating/drinking), Time Bin 4 (15-20 TOTAL), AVG: 0.78
  BSS scoring E (eating/drinking), Time Bin 5 (20-25 TOTAL), AVG: 0.71
  BSS scoring E (eating/drinking), Time Bin 6 (25-30 TOTAL), AVG: 0.75
  BSS scoring G (grooming), Time Bin 1 (0-5 TOTAL), AVG: 0.08
  BSS scoring G (grooming), Time Bin 2 (5-10 TOTAL), AVG: 0.09
  BSS scoring G (grooming), Time Bin 3 (10-15 TOTAL), AVG: 0.10
  BSS scoring G (grooming), Time Bin 4 (15-20 TOTAL), AVG: 0.09
  BSS scoring G (grooming), Time Bin 5 (20-25 TOTAL), AVG: 0.12
  BSS scoring G (grooming), Time Bin 6 (25-30 TOTAL), AVG: 0.05
  BSS scoring R (resting), Time Bin 1 (0-5 TOTAL), AVG: 0.01
  BSS scoring R (resting), Time Bin 2 (5-10 TOTAL), AVG: 0.01
  BSS scoring R (resting), Time Bin 3 (10-15 TOTAL), AVG: 0.02
  BSS scoring R (resting), Time Bin 4 (15-20 TOTAL), AVG: 0.03
  BSS scoring R (resting), Time Bin 5 (20-25 TOTAL), AVG: 0.00
  BSS scoring R (resting), Time Bin 6 (25-30 TOTAL), AVG: 0.05
Lorcaserin 1 mg/kg, raw data per animal LT-1 to LT-12, 0-0.5 hours
  BSS scoring R (resting), Time Bin 5 (20-25 TOTAL): 0
[2]
  BSS scoring A (active), Time Bin 1 (0-5 TOTAL): 3 (3×) and 2 (4×) and 1 (3×) and 0 (2×)
  BSS scoring A (active), Time Bin 2 (5-10 TOTAL): 1 (3×) and 0 (6×) and 2 (3×)
  BSS scoring A (active), Time Bin 3 (10-15 TOTAL): 1 (7×) and 0 (3×) and 2 (2×)
  BSS scoring A (active), Time Bin 4 (15-20 TOTAL): 3 (3×) and 1 (3×) and 0 (6×)
  BSS scoring A (active), Time Bin 5 (20-25 TOTAL): 0 (3×) and 1 (3×) and 3 (2×) and 4 (2×) and 2 (2×)
  BSS scoring A (active), Time Bin 6 (25-30 TOTAL): 2 (2×) and 0 (4×) and 1 (4×) and 7 and 3
  BSS scoring E (eating/drinking), Time Bin 1 (0-5 TOTAL): 7 (4×) and 6 (3×) and 8 (2×) and 10 and 9 (2×)
  BSS scoring E (eating/drinking), Time Bin 2 (5-10 TOTAL): 6 (2×) and 9 (4×) and 8 (3×) and 7 and 10 (2×)
  BSS scoring E (eating/drinking), Time Bin 3 (10-15 TOTAL): 8 (6×) and 5 and 7 and 6 and 10 and 9 (2×)
  BSS scoring E (eating/drinking), Time Bin 4 (15-20 TOTAL): 7 (3×) and 8 and 6 (3×) and 10 and 9 (4×)
  BSS scoring E (eating/drinking), Time Bin 5 (20-25 TOTAL): 9 (2×) and 8 (4×) and 7 (3×) and 4 (2×) and 6
  BSS scoring E (eating/drinking), Time Bin 6 (25-30 TOTAL): 7 (2×) and 9 (4×) and 10 and 8 (3×) and 1 and 5
  BSS scoring G (grooming), Time Bin 1 (0-5 TOTAL): 0 (4×) and 2 and 1 (7×)
  BSS scoring G (grooming), Time Bin 2 (5-10 TOTAL): 3 and 1 (4×) and 0 (5×) and 2 (2×)
  BSS scoring G (grooming), Time Bin 3 (10-15 TOTAL): 1 (4×) and 2 (4×) and 0 (4×)
  BSS scoring G (grooming), Time Bin 4 (15-20 TOTAL): 0 (4×) and 1 (5×) and 2 (3×)
  BSS scoring G (grooming), Time Bin 5 (20-25 TOTAL): 1 (3×) and 2 (4×) and 0 (4×) and 3
  BSS scoring G (grooming), Time Bin 6 (25-30 TOTAL): 0 (7×) and 1 (4×) and 2
  BSS scoring R (resting), Time Bin 1 (0-5 TOTAL): 0 (11×) and 1
  BSS scoring R (resting), Time Bin 2 (5-10 TOTAL): 0 (11×) and 1
  BSS scoring R (resting), Time Bin 3 (10-15 TOTAL): 0 (10×) and 1 (2×)
  BSS scoring R (resting), Time Bin 4 (15-20 TOTAL): 0 (8×) and 1 (4×)
  BSS scoring R (resting), Time Bin 6 (25-30 TOTAL): 1 (3×) and 0 (8×) and 3
[3]
  BSS scoring A (active), Time Bin 19 (90-95 TOTAL), AVG: 0.10
  BSS scoring A (active), Time Bin 20 (95-100 TOTAL), AVG: 0.08
  BSS scoring A (active), Time Bin 21 (100-105 TOTAL), AVG: 0.06
  BSS scoring A (active), Time Bin 22 (105-110 TOTAL), AVG: 0.02
  BSS scoring A (active), Time Bin 23 (110-115 TOTAL), AVG: 0.06
  BSS scoring A (active), Time Bin 24 (115-120 TOTAL), AVG: 0.10
  BSS scoring E (eating/drinking), Time Bin 19 (90-95 TOTAL), AVG: 0.77
  BSS scoring E (eating/drinking), Time Bin 20 (95-100 TOTAL), AVG: 0.75
  BSS scoring E (eating/drinking), Time Bin 21 (100-105 TOTAL), AVG: 0.84
  BSS scoring E (eating/drinking), Time Bin 22 (105-110 TOTAL), AVG: 0.84
  BSS scoring E (eating/drinking), Time Bin 23 (110-115 TOTAL), AVG: 0.75
  BSS scoring E (eating/drinking), Time Bin 24 (115-120 TOTAL), AVG: 0.58
  BSS scoring G (grooming), Time Bin 19 (90-95 TOTAL), AVG: 0.04
  BSS scoring G (grooming), Time Bin 20 (95-100 TOTAL), AVG: 0.05
  BSS scoring G (grooming), Time Bin 21 (100-105 TOTAL), AVG: 0.05
  BSS scoring G (grooming), Time Bin 22 (105-110 TOTAL), AVG: 0.01
  BSS scoring G (grooming), Time Bin 23 (110-115 TOTAL), AVG: 0.08
  BSS scoring G (grooming), Time Bin 24 (115-120 TOTAL), AVG: 0.07
  BSS scoring R (resting), Time Bin 19 (90-95 TOTAL), AVG: 0.09
  BSS scoring R (resting), Time Bin 20 (95-100 TOTAL), AVG: 0.12
  BSS scoring R (resting), Time Bin 21 (100-105 TOTAL), AVG: 0.05
  BSS scoring R (resting), Time Bin 22 (105-110 TOTAL), AVG: 0.13
  BSS scoring R (resting), Time Bin 23 (110-115 TOTAL), AVG: 0.11
  BSS scoring R (resting), Time Bin 24 (115-120 TOTAL), AVG: 0.08
[4]
  BSS scoring A (active), Time Bin 19 (90-95 TOTAL): 2 (3×) and 0 (7×) and 3 (2×)
  BSS scoring A (active), Time Bin 20 (95-100 TOTAL): 0 (7×) and 1 (2×) and 4 and 2 (2×)
  BSS scoring A (active), Time Bin 21 (100-105 TOTAL): 0 (7×) and 1 (4×) and 3
  BSS scoring A (active), Time Bin 22 (105-110 TOTAL): 0 (11×) and 2
  BSS scoring A (active), Time Bin 23 (110-115 TOTAL): 0 (6×) and 1 (5×) and 2
  BSS scoring A (active), Time Bin 24 (115-120 TOTAL): 0 (8×) and 6 and 1 and 3 and 2
  BSS scoring E (eating/drinking), Time Bin 19 (90-95 TOTAL): 8 and 9 (3×) and 5 (2×) and 10 (2×) and 7 (3×) and 6
  BSS scoring E (eating/drinking), Time Bin 20 (95-100 TOTAL): 9 (5×) and 8 and 0 and 10 (2×) and 4 and 6 and 7
  BSS scoring E (eating/drinking), Time Bin 21 (100-105 TOTAL): 8 (4×) and 9 (2×) and 7 (3×) and 10 (3×)
  BSS scoring E (eating/drinking), Time Bin 22 (105-110 TOTAL): 7 and 8 (4×) and 9 (3×) and 10 (3×) and 5
  BSS scoring E (eating/drinking), Time Bin 23 (110-115 TOTAL): 6 (5×) and 8 (3×) and 9 (4×)
  BSS scoring E (eating/drinking), Time Bin 24 (115-120 TOTAL): 10 (2×) and 9 and 0 (2×) and 7 (2×) and 4 (2×) and 5 and 6 and 8
  BSS scoring G (grooming), Time Bin 19 (90-95 TOTAL): 0 (9×) and 3 and 1 (2×)
  BSS scoring G (grooming), Time Bin 20 (95-100 TOTAL): 0 (7×) and 1 (4×) and 2
  BSS scoring G (grooming), Time Bin 21 (100-105 TOTAL): 0 (7×) and 1 (4×) and 2
  BSS scoring G (grooming), Time Bin 22 (105-110 TOTAL): 0 (11×) and 1
  BSS scoring G (grooming), Time Bin 23 (110-115 TOTAL): 4 and 2 (2×) and 0 (7×) and 1 (2×)
  BSS scoring G (grooming), Time Bin 24 (115-120 TOTAL): 0 (7×) and 2 (3×) and 1 (2×)
  BSS scoring R (resting), Time Bin 19 (90-95 TOTAL): 0 (6×) and 1 (3×) and 3 (2×) and 2
  BSS scoring R (resting), Time Bin 20 (95-100 TOTAL): 1 (5×) and 0 (5×) and 7 and 2
  BSS scoring R (resting), Time Bin 21 (100-105 TOTAL): 2 and 0 (9×) and 3 and 1
  BSS scoring R (resting), Time Bin 22 (105-110 TOTAL): 3 (2×) and 2 (4×) and 0 (4×) and 1 (2×)
  BSS scoring R (resting), Time Bin 23 (110-115 TOTAL): 0 (3×) and 1 (6×) and 2 (2×) and 3
  BSS scoring R (resting), Time Bin 24 (115-120 TOTAL): 0 (7×) and 1 (2×) and 4 and 2 (2×)
